The test system of one assay is Puccinia triticina. Kind of assay: Wheat Brown Rust fungicidal activity (PUCCRT). The following applies: rate 100 ppm; for pest or weed control at 100 ppm: Puccinia triticina. It is filed as in vivo. The protocol:
Technical grades of materials were dissolved in acetone, which were then mixed with nine volumes of water containing 110 ppm Triton X-100. The fungicide solutions were applied onto wheat seedlings using an automated booth sprayer to run-off. All sprayed plants were allowed to air dry prior to further handling. All fungicides were evaluated using the aforementioned method for their activity vs. all target diseases. Wheat leaf blotch and brown rust activity were also evaluated using track spray applications, in which case the fungicides were formulated as EC formulations, containing 0.1% Trycol 5941 in the spray solutions. Wheat plants (variety Yuma) were grown from seed in a greenhouse in 50% mineral soil/50% soil-less Metro mix until the first leaf was fully emerged, with 7-10 seedlings per pot. These plants were inoculated with an aqueous spore suspension of Septoria tritici either prior to or after fungicide treatments. After inoculation the plants were kept in 100% relative humidity (one day in a dark dew chamber followed by two to three days in a lighted dew chamber at 20° C.) to permit spores to germinate and infect the leaf. The plants were then transferred to a greenhouse set at 20° C. for disease to develop. When disease symptoms were fully expressed on the 1st leaves of untreated plants, infection levels were assessed on a scale of 0 to 100 percent disease severity. Percent disease control was calculated using the ratio of disease severity on treated plants relative to untreated plants. Evaluation of Fungicidal Activity: Wheat Brown Rust (Puccinia triticina; Synonym: Puccinia recondite f sp. tritici; Bayer code PUCCRT) Wheat plants (variety Yuma) were grown from seed in a greenhouse in 50% mineral soil/50% soil-less Metro mix until the first leaf was fully emerged, with 7-10 seedlings per pot. These plants were inoculated with an aqueous spore suspension of Puccinia triticina either prior to or after fungicide treatments. After inoculation the plants were kept in a dark dew room at 22° C. with 100% relative humidity overnight to permit spores to germinate and infect the leaf. The plants were then transferred to a greenhouse set at 24° C. for disease to develop. Fungicide formulation, application and disease assessment followed the procedures as described in the Example A.

The test system of assay [1] is Mycosphaerella graminicola; Anamorph: Septoria tritici. Put plainly: Leaf Blotch of Wheat fungicidal activity (SEPTTR). The assay is classed as in vivo. Particulars: rate 100 ppm; for pest or weed control at 100 ppm: Zymoseptoria tritici. The procedure: Evaluation of Fungicidal Activity: Leaf Blotch of Wheat (Mycosphaerella graminicola; Anamorph: Septoria tritici; Bayer code […]) Technical grades of materials were dissolved in acetone, which were then mixed with nine volumes of water containing 110 ppm Triton X-100. The fungicide solutions were applied onto wheat seedlings using an automated booth sprayer to run-off. All sprayed plants were allowed to air dry prior to further handling. All fungicides were evaluated using the aforementioned method for their activity vs. all target diseases. Wheat leaf blotch and brown rust activity were also evaluated using track spray applications, in which case the fungicides were formulated as EC formulations, containing 0.1% Trycol 5941 in the spray solutions. Wheat plants (variety Yuma) were grown from seed in a greenhouse in 50% mineral soil/50% soil-less Metro mix until the first leaf was fully emerged, with 7-10 seedlings per pot. These plants were inoculated with an aqueous spore suspension of Septoria tritici either prior to or after fungicide treatments. After inoculation the plants were kept in 100% relative humidity (one day in a dark dew chamber followed by two to three days in a lighted dew chamber at 20° C.) to permit spores to germinate and infect the leaf. The plants were then transferred to a greenhouse set at 20° C. for disease to develop. When disease symptoms were fully expressed on the 1st leaves of untreated plants, infection levels were assessed on a scale of 0 to 100 percent disease severity. Percent disease control was calculated using the ratio of disease severity on treated plants relative to untreated plants.

Where [2] appears, read: 24 h, 1 Day Protectant, read-out: Disease control PUCCRT 1DP.
The mark [3] stands for this setting: 72 h, 3 Day Curative, read-out: Disease control PUCCRT 3DC.
Setting [4] is: 24 h, 1 Day Protectant, read-out: Disease control SEPTTR 1DP.
Where [5] appears, read: 72 h, 3 Day Curative, read-out: Disease control SEPTTR 3DC.

Like-named read-outs stand apart in the source and are kept apart here.

`COc1ccnc(C(=O)N[C@H]2COC[C@H](CCc3ccccc3)[C@@H](OC(=O)C3CC3)[C@H](C)OC2=O)c1O` [Compound F15]: the pest or weed control at 100 ppm in the assay with Puccinia triticina (setting [2]) lay in the range of 80 to 100%; in the assay on Puccinia triticina (setting [3]), 0 to 80%; in assay [1] (setting [4]), 80 to 100%; in assay [1] (setting [5]), 80 to 100%.

Consider `COc1ccnc(C(=O)N[C@H]2COC[C@H](CCc3ccccc3)[C@@H](Oc3ccc(C)cc3)[C@H](C)OC2=O)c1O` [Compound F16], for which the pest or weed control at 100 ppm in the assay with Puccinia triticina (setting [2]) fell in the range of 80 to 100%; with Puccinia triticina (setting [3]) it was 0 to 80%; in assay [1] (setting [4]), 80 to 100%; in assay [1] (setting [5]) it was 0 to 80%.

Regarding `COc1ccnc(C(=O)N[C@H]2COC[C@H](Cc3ccc(F)cc3)[C@@H](OCCCC(F)(F)F)[C@H](C)OC2=O)c1O` [Compound F17], the pest or weed control at 100 ppm in the assay on Puccinia triticina (setting [2]) was 80 to 100%; with Puccinia triticina (setting [3]), 0 to 80%; in assay [1] (setting [4]), 80 to 100%; in assay [1] (setting [5]) it was 80 to 100%.

For `COc1ccnc(C(=O)N[C@H]2COC[C@H](Cc3ccc(F)cc3)[C@@H](OC3CCCC3)[C@H](C)OC2=O)c1O` [Compound F18], the pest or weed control at 100 ppm in the assay on Puccinia triticina (setting [2]) lay in the range of 80 to 100%; in the assay with Puccinia triticina (setting [3]), 80 to 100%; in assay [1] (setting [4]) it was 80 to 100%; in assay [1] (setting [5]), 0 to 80%.

As for `CCCCCO[C@@H]1[C@@H](Cc2ccc(F)cc2)COC[C@H](NC(=O)c2nccc(OC)c2O)C(=O)O[C@H]1C` [Compound F19], the pest or weed control at 100 ppm (with Puccinia triticina (setting [2]); in the assay on Puccinia triticina (setting [3]); in assay [1] (setting [4]); in assay [1] (setting [5])) was 80 to 100% each time.

Regarding `COc1ccnc(C(=O)N[C@H]2COC[C@H](Cc3ccc(F)cc3)[C@@H](OCC(C)C)[C@H](C)OC2=O)c1O` [Compound F21], the pest or weed control at 100 ppm (in the assay on Puccinia triticina (setting [2]); in the assay on Puccinia triticina (setting [3]); in assay [1] (setting [4]); in assay [1] (setting [5])) was 80 to 100% each time.

For `COc1ccnc(C(=O)N[C@H]2COC[C@H](Cc3ccc(C)cc3)[C@@H](OC(=O)C3CC3)[C@H](C)OC2=O)c1O` [Compound F22], the pest or weed control at 100 ppm (with Puccinia triticina (setting [2]); with Puccinia triticina (setting [3]); in assay [1] (setting [5])) was 0 to 80% in each case.

For the compound `COc1ccnc(C(=O)N[C@H]2COC[C@H](Cc3ccc(C)cc3)[C@@H](OCCCC(F)(F)F)[C@H](C)OC2=O)c1O` [Compound F23], the pest or weed control at 100 ppm with Puccinia triticina (setting [2]) is 80 to 100%; with Puccinia triticina (setting [3]), 0 to 80%; in assay [1] (setting [4]), 80 to 100%; in assay [1] (setting [5]), 0 to 80%.

Turning to `COc1ccnc(C(=O)N[C@H]2COC[C@H](Cc3ccc(C)cc3)[C@@H](Oc3ccccc3)[C@H](C)OC2=O)c1O` [Compound F24], the pest or weed control at 100 ppm lay within 80 to 100% in the assay with Puccinia triticina (setting [2]), 0 to 80% with Puccinia triticina (setting [3]), 80 to 100% in assay [1] (setting [4]) and 0 to 80% in assay [1] (setting [5]).

As to `COc1ccnc(C(=O)N[C@H]2COC[C@H](Cc3ccc(C)cc3)[C@@H](OC3CCCC3)[C@H](C)OC2=O)c1O` [Compound F25], the pest or weed control at 100 ppm in the assay on Puccinia triticina (setting [2]) fell in the range of 80 to 100%; in the assay with Puccinia triticina (setting [3]), 0 to 80%; in assay [1] (setting [4]) it was 80 to 100%; in assay [1] (setting [5]), 80 to 100%.

As for `COc1ccnc(C(=O)N[C@H]2COC[C@H](Cc3ccc(C(F)(F)F)cc3)[C@@H](OC(=O)C3CC3)[C@H](C)OC2=O)c1O` [Compound F26], the pest or weed control at 100 ppm in the assay with Puccinia triticina (setting [2]) is 0 to 80%; in assay [1] (setting [4]), 80 to 100%; in assay [1] (setting [5]), 0 to 80%.

On to `COc1ccnc(C(=O)N[C@H]2COC[C@H](Cc3ccc(C(F)(F)F)cc3)[C@@H](OCC(C)C)[C@H](C)OC2=O)c1O` [Compound F27], for which the pest or weed control at 100 ppm is 80 to 100% with Puccinia triticina (setting [2]), 0 to 80% in the assay on Puccinia triticina (setting [3]), 80 to 100% in assay [1] (setting [4]) and 0 to 80% in assay [1] (setting [5]).

As to `COc1ccnc(C(=O)N[C@H]2COC[C@H](Cc3ccc(C(F)(F)F)cc3)[C@@H](OC3CCCC3)[C@H](C)OC2=O)c1O` [Compound F28], the pest or weed control at 100 ppm lay in the range of 80 to 100% with Puccinia triticina (setting [2]), 0 to 80% with Puccinia triticina (setting [3]), 80 to 100% in assay [1] (setting [4]) and 0 to 80% in assay [1] (setting [5]).

Regarding `CCCO[C@@H]1[C@@H](Cc2ccc(C(F)(F)F)cc2)COC[C@H](NC(=O)c2nccc(OC)c2O)C(=O)O[C@H]1C` [Compound F29], the pest or weed control at 100 ppm in the assay on Puccinia triticina (setting [2]) was 80 to 100%; in the assay on Puccinia triticina (setting [3]) it was 0 to 80%; in assay [1] (setting [4]), 80 to 100%; in assay [1] (setting [5]), 80 to 100%.

With `COc1ccnc(C(=O)N[C@H]2COC[C@H](Cc3ccc(C(F)(F)F)cc3)[C@@H](OCC(C)C)[C@H](C)OC2=O)c1O` [Compound F30], in the assay with Puccinia triticina (1 Day Protectant), the “Disease control PUCCRT 1DP” value was “A (80-100)”. Also, the “Disease control SEPTTR 1DP” value in assay [1] (1 Day Protectant) is given as “A (80-100)”. Also, the “Disease control SEPTTR 3DC” value in assay [1] (3 Day Curative) was “B (More than 0-Less than 80)”.

With `CCCCCO[C@@H]1[C@@H](Cc2ccc(C(F)(F)F)cc2)COC[C@H](NC(=O)c2nccc(OC)c2O)C(=O)O[C@H]1C` [Compound F31], the pest or weed control at 100 ppm was in the range of 0 to 80% in the assay with Puccinia triticina (setting [2]), 80 to 100% in assay [1] (setting [4]) and 0 to 80% in assay [1] (setting [5]).

`COc1ccnc(C(=O)N[C@H]2COC[C@H](CC(F)(F)F)[C@@H](OCC(C)C)[C@H](C)OC2=O)c1O` [Compound F32]: the pest or weed control at 100 ppm lay in the range of 80 to 100% with Puccinia triticina (setting [2]), 0 to 80% with Puccinia triticina (setting [3]), 80 to 100% in assay [1] (setting [4]) and 0 to 80% in assay [1] (setting [5]).

With `COc1ccnc(C(=O)N[C@H]2COC[C@H](CC(F)(F)F)[C@@H](OC3CCCC3)[C@H](C)OC2=O)c1O` [Compound F33], the figures for the pest or weed control at 100 ppm (in the assay on Puccinia triticina (setting [2]); in assay [1] (setting [4]); in assay [1] (setting [5])) were 0 to 80%, 80 to 100% and 0 to 80%, respectively.

For the compound `COc1ccnc(C(=O)N[C@H]2COC[C@H](CCC(C)C)[C@@H](OCC(C)C)[C@H](C)OC2=O)c1O` [Compound F34], the pest or weed control at 100 ppm (in the assay on Puccinia triticina (setting [2]); with Puccinia triticina (setting [3]); in assay [1] (setting [4]); in assay [1] (setting [5])) was 80 to 100% each time.

As to `COc1ccnc(C(=O)N[C@H]2COC[C@H](CCC(C)C)[C@@H](OCCCC(F)(F)F)[C@H](C)OC2=O)c1O` [Compound F35], the pest or weed control at 100 ppm in the assay with Puccinia triticina (setting [2]) lay within 80 to 100%; in assay [1] (setting [4]), 80 to 100%; in assay [1] (setting [5]), 0 to 80%.

`COc1ccnc(C(=O)N[C@H]2COC[C@H](CCC(C)C)[C@@H](OC(=O)C3CC3)[C@H](C)OC2=O)c1O` [Compound F36]: the pest or weed control at 100 ppm in the assay with Puccinia triticina (setting [2]) was in the range of 80 to 100%; in the assay with Puccinia triticina (setting [3]) it was 0 to 80%; in assay [1] (setting [4]) it was 80 to 100%; in assay [1] (setting [5]), 80 to 100%.

Turning to `COc1ccnc(C(=O)N[C@H]2COC[C@H](CCC(C)C)[C@@H](Oc3ccc(C)cc3)[C@H](C)OC2=O)c1O` [Compound F37], the pest or weed control at 100 ppm was in the range of 80 to 100% in the assay with Puccinia triticina (setting [2]), 0 to 80% in the assay on Puccinia triticina (setting [3]), 80 to 100% in assay [1] (setting [4]) and 80 to 100% in assay [1] (setting [5]).

The record behind these values is US9179674B2, “Macrocyclic picolinamide compounds with fungicidal activity” (DOW AGROSCIENCES LLC, priority 2013, dated 2015).
